pIC50: −log10 of the molar value.
Test system: GM3
Assay: GM3 Elisa assay
Type: cell-based
Settings: 48 h, Table 1; B16-FO cells, 2 days incubation; read-out: IC50_uM_Mean
Protocol: B16-FO cells from ATCC (American Tissue Culture Collection) were grown in DMEM media (ATCC) with 10% Fetal Bovine Serum (Hyclone) and Pen/Step/Glutamine (Biowhittaker). 4000 cells per well were plated on collagen coated plates (BD) and allowed to attach for 6 hours in an incubator (37 degrees, 5% CO2). After 6 hours the compounds and controls were added to the wells, the plates mixed and returned to the incubator for 2 days. Day of assay the cells were fixed for 20 minutes with 1% formaldehyde and then washed with Tris Buffered Saline (TBS) 3 times, 150 μl of TBS was left in the wells and 50 μl of goat serum (Invitrogen) was added, the plates mixed and incubated for 1 hour at room temperature. The plates were flicked and the cells incubated with the monoclonal Antibody to GM3 (NeuAc) (Cosmo) for 45 minutes as room temperature. The plates were then washed 3 times with TBS, leaving 150 μl of TBS in the wells and Peroxidase AffinPure F (ab′) 2 frag Gt Anti-mouse IgM, μ Chain Specific (Jackson Immuno Research) was added in 50 μl, the plates mixed and incubated for 45 minutes at room temperature. The plates were washed 3 times with TBS, flicked and blotted and 100 μl of Quantablu (Pierce) was added to the wells and incubated for 1 hour then read on a Fluorometer at Ex 325 and Em 420. The data was then analyzed using standard programs.

Row | Structure (SMILES) | pIC50
1 | CCCCCCCCCCCCNC(=O)N[C@H](CN1CCCC1)[C@H](O)c1ccc2c(c1)OCCO2 [Compound 7, 1-((1R,2R)-1-(2,3-dihydrobenzo[β][1,4]dioxin-6-yl)-1-hydroxy-3-(pyrrolidin-1-yl)propan-2-yl)-3-dodecylurea] | ≥ 7.00
2 | O=C(NCc1ccc(F)cc1)N[C@H](CN1CCCC1)[C@H](O)c1ccc2c(c1)OCCO2 [Compound 17, 1-((1R,2R)-1-(2,3-dihydrobenzo[β][1,4]dioxin-6-yl)-1-hydroxy-3-(pyrrolidin-1-yl)propan-2-yl)-3-(4-fluorobenzyl)urea] | ≥ 7.00
3 | O=C(N[C@H](CN1CCCC1)[C@H](O)c1ccc2c(c1)OCCO2)c1ccc2sccc2c1 [Compound 19, N-((1R,2R)-1-(2,3-dihydrobenzo[β][1,4]dioxin-6-yl)-1-hydroxy-3-(pyrrolidin-1-yl)propan-2-yl)benzo[b]thiophene-5-carboxamide] | 6.00 to 7.00
4 | O=C(NCc1ccc(Br)cc1)N[C@H](CN1CCCC1)[C@H](O)c1ccc2c(c1)OCCO2 [Compound 40, 1-(4-bromobenzyl)-3-((1R,2R)-1-(2,3-dihydrobenzo[β][1,4]dioxin-6-yl)-1-hydroxy-3-(pyrrolidin-1-yl)propan-2-yl)urea] | ≥ 7.00
5 | COc1ccc(CNC(=O)N[C@H](CN2CCCC2)[C@H](O)c2ccc3c(c2)OCCO3)cc1 [Compound 41, 1-((1R,2R)-1-(2,3-dihydrobenzo[β][1,4]dioxin-6-yl)-1-hydroxy-3-(pyrrolidin-1-yl)propan-2-yl)-3-(4-methoxybenzyl)urea] | ≥ 7.00
6 | Cc1ccc(CNC(=O)N[C@H](CN2CCCC2)[C@H](O)c2ccc3c(c2)OCCO3)cc1 [Compound 42, 1-((1R,2R)-1-(2,3-dihydrobenzo[β][1,4]dioxin-6-yl)-1-hydroxy-3-(pyrrolidin-1-yl)propan-2-yl)-3-(4-methylbenzyl)urea] | ≥ 7.00
7 | O=C(NCc1ccc(Cl)cc1)N[C@H](CN1CCCC1)[C@H](O)c1ccc2c(c1)OCCO2 [Compound 43, 1-(4-chlorobenzyl)-3-((1R,2R)-1-(2,3-dihydrobenzo[β][1,4]dioxin-6-yl)-1-hydroxy-3-(pyrrolidin-1-yl)propan-2-yl)urea] | ≥ 7.00
8 | O=C(Cc1ccc(-c2cccnc2)cc1)N[C@H](CN1CCCC1)[C@H](O)c1ccc2c(c1)OCCO2 [Compound 47, N-((1R,2R)-1-(2,3-dihydrobenzo[β][1,4]dioxin-6-yl)-1-hydroxy-3-(pyrrolidin-1-yl)propan-2-yl)-2-(4-(pyridin-3-yl)phenyl)acetamide] | 6.00 to 7.00
9 | O=C(Cc1ccc(-c2ccc(Cl)cc2)cc1)N[C@H](CN1CCCC1)[C@H](O)c1ccc2c(c1)OCCO2 [Compound 48, 2-(4′-chlorobiphenyl-4-yl)-N-((1R, 2R)-1-(2,3-dihydrobenzo[β][1,4]dioxin-6-yl)-1-hydroxy-3-(pyrrolidin-1-yl)propan-2-yl)acetamide] | ≥ 7.00
10 | COc1cccc(OCCC(=O)N[C@H](CN2CCCC2)[C@H](O)c2ccc3c(c2)OCCO3)c1 [Compound 54, N-((1R,2R)-1-(2,3-dihydrobenzo[β][1,4]dioxin-6-yl)-1-hydroxy-3-(pyrrolidin-1-yl)propan-2-yl)-3-(3-methoxyphenoxy)propanamide] | ≥ 7.00
11 | O=C(CCOc1cc(Cl)ccc1Cl)N[C@H](CN1CCCC1)[C@H](O)c1ccc2c(c1)OCCO2 [Compound 55, 3-(2,5-dichlorophenoxy)-N-((1R,2R)-1-(2,3-dihydrobenzo[β][1,4]dioxin-6-yl)-1-hydroxy-3-(pyrrolidin-1-yl)propan-2-yl)propanamide] | ≥ 7.00
12 | O=C(CCOc1ccc(Cl)cc1)N[C@H](CN1CCCC1)[C@H](O)c1ccc2c(c1)OCCO2 [Compound 57, 3-(4-chlorophenoxy)-N-((1R,2R)-1-(2,3-dihydrobenzo[β][1,4]dioxin-6-yl)-1-hydroxy-3-(pyrrolidin-1-yl)propan-2-yl)propanamide] | ≥ 7.00
13 | O=C(CCOc1ccc(F)cc1)N[C@H](CN1CCCC1)[C@H](O)c1ccc2c(c1)OCCO2 [Compound 58, N-((1R,2R)-1-(2,3-dihydrobenzo[β][1,4]dioxin-6-yl)-1-hydroxy-3-(pyrrolidin-1-yl)propan-2-yl)-3-(4-fluorophenoxy)propanamide] | 6.00 to 7.00

Now from value to molecule:

Row | pIC50 | Structure (SMILES)
14 | 6.00 to 7.00 | O=C(N[C@H](CN1CCCC1)[C@H](O)c1ccc2c(c1)OCCO2)c1cc2ccccc2s1 [Compound 5, N-((1R,2R)-1-(2,3-dihydrobenzo[β][1,4]dioxin-6-yl)-1-hydroxy-3-(pyrrolidin-1-yl)propan-2-yl)benzo[b]thiophene-2-carboxamide]
15 | 6.00 to 7.00 | O=C(NCc1ccccc1)N[C@H](CN1CCCC1)[C@H](O)c1ccc2c(c1)OCCO2 [Compound 6, 1-benzyl-3-((1R,2R)-1-(2,3-dihydrobenzo[β][1,4]dioxin-6-yl)-1-hydroxy-3-(pyrrolidin-1-yl)propan-2-yl)urea]
16 | 6.00 to 7.00 | C[C@H](NC(=O)N[C@H](CN1CCCC1)[C@H](O)c1ccc2c(c1)OCCO2)c1ccccc1 [Compound 10, 1-((1R,2R)-1-(2,3-dihydrobenzo[β][1,4]dioxin-6-yl)-1-hydroxy-3-(pyrrolidin-1-yl)propan-2-yl)-3-((S)-1-phenylethyl)urea]
17 | ≥ 7.00 | O=C(CSc1ccccc1)N[C@H](CN1CCCC1)[C@H](O)c1ccc2c(c1)OCCO2 [Compound 11, N-((1R,2R)-1-(2,3-dihydrobenzo[β][1,4]dioxin-6-yl)-1-hydroxy-3-(pyrrolidin-1-yl)propan-2-yl)-2-(phenylthio)acetamide]
18 | 6.00 to 7.00 | O=C(N[C@H](CN1CCCC1)[C@H](O)c1ccc2c(c1)OCCO2)c1ccc(-c2ccccc2)cc1 [Compound 12, N-((1R,2R)-1-(2,3-dihydrobenzo[β][1,4]dioxin-6-yl)-1-hydroxy-3-(pyrrolidin-1-yl)propan-2-yl)biphenyl-4-carboxamide]
19 | ≥ 7.00 | O=C(Cc1ccc(-c2ccccc2)cc1)N[C@H](CN1CCCC1)[C@H](O)c1ccc2c(c1)OCCO2 [Compound 23, 2-(biphenyl-4-yl)-N-((R,2R)-1-(2,3-dihydrobenzo[β][1,4]dioxin-6-yl)-1-hydroxy-3-(pyrrolidin-1-yl)propan-2-yl)acetamide]
20 | 6.00 to 7.00 | O=C(Cc1ccc(Oc2ccccc2)cc1)N[C@H](CN1CCCC1)[C@H](O)c1ccc2c(c1)OCCO2 [Compound 24, N-((1R,2R)-1-(2,3-dihydrobenzo[β][1,4]dioxin-6-yl)-1-hydroxy-3-(pyrrolidin-1-yl)propan-2-yl)-2-(4-phenoxyphenyl)acetamide]
21 | 6.00 to 7.00 | O=C(N[C@H](CN1CCCC1)[C@H](O)c1ccc2c(c1)OCCO2)[C@@H](O)Cc1ccccc1 [Compound 25, (S)—N-((1R,2R)-1-(2,3-dihydrobenzo[β][1,4]dioxin-6-yl)-1-hydroxy-3-(pyrrolidin-1-yl)propan-2-yl)-2-hydroxy-3-phenylpropanamide]
22 | ≥ 7.00 | O=C(CCOc1ccccc1)N[C@H](CN1CCCC1)[C@H](O)c1ccc2c(c1)OCCO2 [Compound 27, N-((1R,2R)-1-(2,3-dihydrobenzo[β][1,4]dioxin-6-yl)-1-hydroxy-3-(pyrrolidin-1-yl)propan-2-yl)-3-phenoxypropanamide]
23 | 6.00 to 7.00 | O=C(N[C@H](CN1CCCC1)[C@H](O)c1ccc2c(c1)OCCO2)C(=O)c1ccccc1 [Compound 31, N-((1R,2R)-1-(2,3-dihydrobenzoall [1,4]dioxin-6-yl)-1-hydroxy-3-(pyrrolidin-1-yl)propan-2-yl)-2-oxo-2-phenylacetamide]
24 | ≥ 7.00 | O=C(CCSc1ccccc1)N[C@H](CN1CCCC1)[C@H](O)c1ccc2c(c1)OCCO2 [Compound 32, N-((1R,2R)-1-(2,3-dihydrobenzo[β][1,4]dioxin-6-yl)-1-hydroxy-3-(pyrrolidin-1-yl)propan-2-yl)-3-(phenylthio)propanamide]
25 | 5.52 to 6.00 | Cc1ccccc1CC(=O)N[C@H](CN1CCCC1)[C@H](O)c1ccc2c(c1)OCCO2 [Compound 35, N-((1R,2R)-1-(2,3-dihydrobenzo [β][1,4]dioxin-6-yl)-1-hydroxy-3-(pyrrolidin-1-yl)propan-2-yl)-2-o-tolylacetamide]
26 | 6.00 to 7.00 | Cc1cccc(CC(=O)N[C@H](CN2CCCC2)[C@H](O)c2ccc3c(c2)OCCO3)c1 [Compound 36, N-((1R,2R)-1-(2,3-dihydrobenzo[b][1,4]dioxin-6-yl)-1-hydroxy-3-(pyrrolidin-1-yl)propan-2-yl)-2-m-tolylacetamide]
27 | ≥ 7.00 | O=C(CSCc1ccccc1)N[C@H](CN1CCCC1)[C@H](O)c1ccc2c(c1)OCCO2 [Compound 39, 2-(benzylthio)-N-((1R,2R)-1-(2,3-dihydrobenzo[β][1,4]dioxin-6-yl)-1-hydroxy-3-(pyrrolidin-1-yl)propan-2-yl)acetamide]
28 | 6.00 to 7.00 | O=C(Cc1cccc(C(F)(F)F)c1)N[C@H](CN1CCCC1)[C@H](O)c1ccc2c(c1)OCCO2 [Compound 51, N-((1R,2R)-1-(2,3-dihydrobenzo[β][1,4]dioxin-6-yl)-1-hydroxy-3-(pyrrolidin-1-yl)propan-2-yl)-2-(3-(trifluoromethyl)phenyl)acetamide]
29 | 5.52 to 6.00 | O=C(Cc1cccc(F)c1)N[C@H](CN1CCCC1)[C@H](O)c1ccc2c(c1)OCCO2 [Compound 53, N-((1R,2R)-1-(2,3-dihydrobenzo[β][1,4]dioxin-6-yl)-1-hydroxy-3-(pyrrolidin-1-yl)propan-2-yl)-2-(3-fluorophenyl)acetamide]

From patent publication US8304447B2, “2-acylaminopropoanol-type glucosylceramide synthase inhibitors” (Genzyme Corporation, priority 2007, dated 2012)
